Measurements reported in patent publication US9725442B2, “Heterocyclic derivative having PGD2 receptor antagonist activity” (Shionogi & Co., Ltd., priority 2011, dated 2017).
Where two headings read alike, the source gives them in different places.

Legend:
CRTH2 = CRTH2 (Homo sapiens (Human), UniProt Q9Y5Y4); experiment: CRTH2 receptor binding inhibitory activity ([3H]-PGD2 displacement, membranes of CRTH2-expressing K562 cell); settings: [3H]-PGD2 displacement, membrane of CRTH2-expressing K562 cell, read-out: Ki
In short: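 Incubation ran 60 min at room temperature using 20 μg/well membrane from CRTH2-expressing K562 cells in pH 7.4 Tris/HCl (50 mM) with 10 mM MgCl2.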

Human DP1 receptor = Human DP1 receptor (Homo sapiens (Human), UniProt Q13258); experiment: Human DP1 inhibitory activity in DP1-expressing cell (PGD2-induced cAMP); type: cell-based
Experimental: Compounds were categorized as AA (cAMP is less than 100 nM) and A (cAMP is more than 100 nM and less than 5000 nM) as shown in Table 99 and 100.

[1] = CRTH2 receptor binding, categorized AAAA/AAA
[2] = category of cAMP IC50, human DP1 receptor expressing Jurkut cell

Human DP1 receptor, sequence (Q13258 whole entry): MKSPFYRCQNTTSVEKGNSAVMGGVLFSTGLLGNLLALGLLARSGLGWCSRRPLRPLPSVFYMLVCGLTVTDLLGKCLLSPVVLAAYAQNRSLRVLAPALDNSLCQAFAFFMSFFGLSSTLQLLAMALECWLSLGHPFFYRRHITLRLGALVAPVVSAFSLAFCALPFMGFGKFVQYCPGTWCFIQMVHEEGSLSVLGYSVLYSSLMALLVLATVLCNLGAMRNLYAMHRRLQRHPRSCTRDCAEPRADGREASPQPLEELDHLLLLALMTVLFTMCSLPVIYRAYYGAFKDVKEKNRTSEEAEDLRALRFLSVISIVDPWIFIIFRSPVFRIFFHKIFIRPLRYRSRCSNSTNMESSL
CRTH2, sequence (Q9Y5Y4 whole entry): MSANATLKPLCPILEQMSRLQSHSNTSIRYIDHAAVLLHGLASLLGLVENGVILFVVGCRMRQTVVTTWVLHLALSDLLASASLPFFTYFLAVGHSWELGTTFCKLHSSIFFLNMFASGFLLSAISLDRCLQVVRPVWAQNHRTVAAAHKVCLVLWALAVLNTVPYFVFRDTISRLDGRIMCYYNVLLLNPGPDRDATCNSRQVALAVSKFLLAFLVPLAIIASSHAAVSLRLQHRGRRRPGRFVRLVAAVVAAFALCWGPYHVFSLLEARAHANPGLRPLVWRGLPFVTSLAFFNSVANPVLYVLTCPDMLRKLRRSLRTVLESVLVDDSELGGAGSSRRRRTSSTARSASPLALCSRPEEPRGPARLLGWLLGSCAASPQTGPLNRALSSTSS

SMILES | Ki (CRTH2; [1]) [µM] | IC50 (Human DP1 receptor; [2]) [µM] | Ki (CRTH2) [µM] | IC50 (Human DP1 receptor; IC50 of PGD2 (60 nM)-induced cAMP increase, human DP1 receptor expressing Jurkut cell) [µM]
CCOc1ccc(S(=O)(=O)N2C[C@@H](C)[C@@H](n3nc(CC(=O)O)c4cc5c(cc43)OCO5)C2)cn1 [Compound I-176] | < 0.1 | 0.1 to 5 |  | 
COc1ccc(S(=O)(=O)N2C[C@@H](C)[C@@H](n3nc(CC(=O)O)c4ccccc43)C2)s1 [Compound I-178] | < 0.1 | 0.1 to 5 |  | 
COc1ccc(S(=O)(=O)N2C[C@@H](C)[C@@H](n3nc(CC(=O)O)c4ccc(F)cc43)C2)s1 [Compound I-179] | < 0.1 | < 0.1 |  | 
COc1ccc(S(=O)(=O)N2C[C@@H](C)[C@@H](n3nc(CC(=O)O)c4ccc(C)cc43)C2)s1 [Compound I-180] | < 0.1 | 0.1 to 5 |  | 
CCOc1ccc(S(=O)(=O)N2C[C@@H](C)[C@@H](n3nc(CC(=O)O)c4ccccc43)C2)c(C=NOC)c1 [Compound I-181] | 0.1 to 5 | 0.1 to 5 |  | 
CCOc1ccc(S(=O)(=O)N2C[C@@H](C)[C@@H](n3nc(CC(=O)O)c4ccccc43)C2)c(/C=C/COC)c1 [Compound I-182] | < 0.1 | 0.1 to 5 |  | 
CCOc1ccc(S(=O)(=O)N2C[C@@H](C)[C@@H](n3nc(CC(=O)O)c4ccccc43)C2)c(CCCOC)c1 [Compound I-183] | < 0.1 | 0.1 to 5 |  | 
CCOc1ccc(S(=O)(=O)N2C[C@@H](C)[C@@H](n3nc(CC(=O)O)c4ccccc43)C2)c(COC)c1 [Compound I-184] | < 0.1 | 0.1 to 5 |  | 
CCOc1ccc(S(=O)(=O)N2C[C@@H](C)[C@@H](n3nc(CC(=O)O)c4ccccc43)C2)c(/C=C/c2ccccc2)c1 [Compound I-185] | < 0.1 | 0.1 to 5 |  | 
CCOc1ccc(S(=O)(=O)N2C[C@@H](C)[C@@H](n3nc(CC(=O)O)c4ccccc43)C2)c(CCc2ccccc2)c1 [Compound I-186] | < 0.1 | 0.1 to 5 |  | 
CCOc1ccc(S(=O)(=O)N2C[C@@H](C)[C@@H](n3nc(CC(=O)O)c4ccccc43)C2)c(-c2ccccc2)c1 [Compound I-187] | < 0.1 | 0.1 to 5 |  | 
CCOc1ccc(S(=O)(=O)N2C[C@@H](C)[C@@H](n3nc(CC(=O)O)c4ccccc43)C2)cc1[N+](=O)[O-] [Compound I-188] | 0.1 to 5 | 0.1 to 5 |  | 
COCCOc1ccc(S(=O)(=O)N2C[C@@H](C)[C@@H](n3nc(CC(=O)O)c4ccccc43)C2)cc1 [Compound I-189] | < 0.1 | 0.1 to 5 |  | 
CC(C)OCCOc1ccc(S(=O)(=O)N2C[C@@H](C)[C@@H](n3nc(CC(=O)O)c4ccccc43)C2)cc1 [Compound I-190] | < 0.1 | 0.1 to 5 |  | 
CCOCCOc1ccc(S(=O)(=O)N2C[C@@H](C)[C@@H](n3nc(CC(=O)O)c4ccccc43)C2)cc1 [Compound I-191] | < 0.1 | 0.1 to 5 |  | 
C[C@@H]1CN(S(=O)(=O)c2ccc(OCCOc3ccccc3)cc2)C[C@@H]1n1nc(CC(=O)O)c2ccccc21 [Compound I-192] | < 0.1 | 0.1 to 5 |  | 
C[C@@H]1CN(S(=O)(=O)c2ccc(OCCOC(C)(C)C)cc2)C[C@@H]1n1nc(CC(=O)O)c2ccccc21 [Compound I-193] | 0.1 to 5 | 0.1 to 5 |  | 
C[C@H]1CN(S(=O)(=O)c2ccc(OC(F)F)cc2)C[C@@H]1n1nc(CC(=O)O)c2ccccc21 [Compound I-194] | < 0.1 | 0.1 to 5 |  | 
C[C@@H]1CN(S(=O)(=O)c2ccc(OC(F)F)cc2)C[C@H]1n1nc(CC(=O)O)c2ccccc21 [Compound I-195] | < 0.1 | 0.1 to 5 |  | 
CCOc1ccc(S(=O)(=O)N2C[C@@H](C)[C@H](n3nc(CC(=O)O)c4ccccc43)C2)cc1 [Compound I-197] | 0.1 to 5 | 0.1 to 5 |  | 
CCOc1ccc(S(=O)(=O)N2C[C@H](C)[C@@H](n3nc(CC(=O)O)c4ccccc43)C2)cc1 [Compound I-198] | < 0.1 | 0.1 to 5 |  | 

Other lines, results leading:

Ki (CRTH2; [1]) [µM] | IC50 (Human DP1 receptor; [2]) [µM] | Ki (CRTH2) [µM] | IC50 (Human DP1 receptor; IC50 of PGD2 (60 nM)-induced cAMP increase, human DP1 receptor expressing Jurkut cell) [µM] | SMILES
< 0.1 | < 0.1 |  |  | CCOc1ccc(S(=O)(=O)N2C[C@H](n3nc(CC(=O)O)c4ccccc43)C[C@@H]2C)cc1 [Compound I-196]
0.1 to 5 | 0.1 to 5 |  |  | CC(C)Oc1ccc(S(=O)(=O)N2C[C@@H](C)[C@H](n3nc(CC(=O)O)c4ccccc43)C2)cc1 [Compound I-199]
< 0.1 | < 0.1 |  |  | CCOc1ccc(S(=O)(=O)N2C[C@@H](C)[C@@H](n3nc(CC(=O)O)c4ccccc43)C2)c(C#N)c1 [Compound I-200]
< 0.1 | 0.1 to 5 |  |  | CCOc1ccc(S(=O)(=O)N2C[C@H](C)[C@@H](n3nc(CC(=O)O)c4ccccc43)C2)cn1 [Compound I-201]
0.1 to 5 | < 0.1 |  |  | CCOc1ccc(S(=O)(=O)N2C[C@@H](C)[C@@H](n3nc(CC(=O)O)c4cc(C)ccc43)C2)cc1 [Compound I-202]
0.1 to 5 | < 0.1 |  |  | Cc1ccc2c(c1)c(CC(=O)O)nn2[C@H]1CN(S(=O)(=O)c2ccc(OC(C)C)cc2)C[C@H]1C [Compound I-203]
< 0.1 | < 0.1 |  |  | COc1ccc2c(CC(=O)O)nn([C@H]3CN(S(=O)(=O)c4ccc(OC(C)C)cc4)C[C@H]3C)c2c1 [Compound I-204]
0.1 to 5 | < 0.1 |  |  | CCOc1ccc(S(=O)(=O)N2C[C@@H](C)[C@@H](n3nc(CC(=O)O)c4c(C)cccc43)C2)cn1 [Compound I-206]
0.1 to 5 | < 0.1 |  |  | CCOc1ccc(S(=O)(=O)N2C[C@H](n3nc(CC(=O)O)c4ccccc43)C[C@@H]2CF)cc1 [Compound I-209]
< 0.1 | 0.1 to 5 | 0.01 |  | CC(C)Oc1ccc(S(=O)(=O)N2CC[C@@H](n3nc(CC(=O)O)c4ccc(F)cc43)[C@@H]2C)cc1 [Compound I-210]
0.1 to 5 | 0.1 to 5 |  |  | CCOc1ccc(S(=O)(=O)N2C[C@@H](C)[C@@H](n3nc(CC(=O)NS(C)(=O)=O)c4ccccc43)C2)cc1 [Compound I-212]
0.1 to 5 | 0.1 to 5 |  |  | C[C@@H]1CN(S(=O)(=O)c2ccc(Oc3ccccc3)nc2)C[C@@H]1n1nc(CC(=O)O)c2ccccc21 [Compound I-213]
0.1 to 5 | < 0.1 |  |  | Cc1nc2ccc(S(=O)(=O)N3C[C@@H](C)[C@@H](n4nc(CC(=O)O)c5ccccc54)C3)cc2s1 [Compound I-214]
< 0.1 | 0.1 to 5 | 0.022 |  | C[C@@H]1CN(S(=O)(=O)c2ccc3occc3c2)C[C@@H]1n1nc(CC(=O)O)c2ccccc21 [Compound I-215]
< 0.1 | < 0.1 |  |  | CCOc1ccc(S(=O)(=O)N2C[C@@H](C)[C@@H](n3nc(CC(=O)O)c4ccccc43)C2)c(Br)c1 [Compound I-216]
< 0.1 | < 0.1 |  |  | CCOc1ccc(S(=O)(=O)N2C[C@H](n3nc(CC(=O)O)c4ccc(F)cc43)[C@H](C)[C@H]2C#N)cc1 [Compound I-217]
0.1 to 5 | < 0.1 |  |  | COc1ccc(S(=O)(=O)N2C[C@@H](C)[C@@H](n3nc(CC(=O)O)c4cc(Cl)ccc43)C2)cc1 [Compound I-218]
0.1 to 5 | 0.1 to 5 | 0.23 |  | CCOc1ccc(S(=O)(=O)N2C[C@@H](C)[C@@H](n3nc(CC(=O)O)c4ccc(N5CCOCC5)cc43)C2)cc1 [Compound I-219]
< 0.1 | < 0.1 | 0.0081 | 0.032 | CCOc1ccc(S(=O)(=O)N2C[C@@H](C)[C@@H](n3nc(CC(=O)O)c4ccc(C5=CCCCC5)cc43)C2)cc1 [Compound I-220]
< 0.1 | < 0.1 |  |  | CCOc1ccc(S(=O)(=O)N2C[C@@H](C)[C@@H](n3nc(CC(=O)O)c4ccc(C5=CCCCC5)cc43)C2)cn1 [Compound I-221]
< 0.1 | 0.1 to 5 |  |  | CCOc1ccc(S(=O)(=O)N2C[C@@H](C)[C@@H](n3nc(CC(=O)O)c4ccc(C5CCCCC5)cc43)C2)cc1 [Compound I-223]
< 0.1 | 0.1 to 5 |  |  | CCOc1ccc(S(=O)(=O)N2C[C@@H](C)[C@@H](n3nc(CC(=O)O)c4ccc(C5CCCCC5)cc43)C2)cn1 [Compound I-224]
< 0.1 | < 0.1 |  |  | CCOc1ccc(S(=O)(=O)N2C[C@@H](C)[C@@H](n3nc(CC(=O)O)c4ccc(OC)cc43)C2)cc1 [Compound I-225]
< 0.1 | 0.1 to 5 |  |  | CCOc1ccc(S(=O)(=O)N2C[C@@H](C)[C@@H](n3nc(CC(=O)O)c4ccc(OC)cc43)C2)cn1 [Compound I-226]
